Data: article PMC10528299, “Targeting FAK/PYK2 with SJP1602 for Anti-Tumor Activity in Triple-Negative Breast Cancer” (Current Issues in Molecular Biology, 2023)

Key:
Test in all cases: Eurofins kinase profiling
Format in all cases: biochemical
Abl(T315I)(h) = target: T1, Abl(T315I)(h) (Homo sapiens, UniProt P00519, T315I); conditions: read-out: residual kinase activity Abl(T315I)(h)
T1 construct: purchased Eurofins KinaseProfiler
Description: (§1) The kinase profiling analysis was performed at Eurofins (Poitiers, France). A total of 110 kinase assays were carried out according to Eurofins’ standard protocols. For protein kinase assays, the kinase activity was measured using Eurofins’ KinaseProfiler radiometric assay. In this assay, a panel of kinases was incubated with the test compound SJP1602 at a concentration of 1 µM, and the kinase activity was determined using radiolabeled phosphate as a substrate. Lipid and atypical kinase assays were conducted using Eurofins’ homogeneous time-resolved fluorescence assay. The same panel of kinases was incubated with SJP1602 at a concentration of 1 µM, and the activity of lipid and atypical kinases was measured using this assay.

Abl(h) = target: T2, Abl(h) (Homo sapiens, UniProt P00519); conditions: read-out: residual kinase activity Abl(h)
T2 construct: purchased Eurofins KinaseProfiler
Description: as §1

CK1γ1(h) = target: T3, CK1γ1(h) (Homo sapiens, UniProt Q9HCP0); conditions: read-out: residual kinase activity CK1γ1(h)
T3 construct: purchased Eurofins KinaseProfiler
Description: as §1

CK1γ2(h) = target: T4, CK1γ2(h) (Homo sapiens, UniProt P78368); conditions: read-out: residual kinase activity CK1γ2(h)
T4 construct: purchased Eurofins KinaseProfiler
Description: as §1

DDR2(h) = target: T5, DDR2(h) (Homo sapiens, UniProt Q16832); conditions: read-out: residual kinase activity DDR2(h)
T5 construct: purchased Eurofins KinaseProfiler
T5 sequence (Q16832 22-855): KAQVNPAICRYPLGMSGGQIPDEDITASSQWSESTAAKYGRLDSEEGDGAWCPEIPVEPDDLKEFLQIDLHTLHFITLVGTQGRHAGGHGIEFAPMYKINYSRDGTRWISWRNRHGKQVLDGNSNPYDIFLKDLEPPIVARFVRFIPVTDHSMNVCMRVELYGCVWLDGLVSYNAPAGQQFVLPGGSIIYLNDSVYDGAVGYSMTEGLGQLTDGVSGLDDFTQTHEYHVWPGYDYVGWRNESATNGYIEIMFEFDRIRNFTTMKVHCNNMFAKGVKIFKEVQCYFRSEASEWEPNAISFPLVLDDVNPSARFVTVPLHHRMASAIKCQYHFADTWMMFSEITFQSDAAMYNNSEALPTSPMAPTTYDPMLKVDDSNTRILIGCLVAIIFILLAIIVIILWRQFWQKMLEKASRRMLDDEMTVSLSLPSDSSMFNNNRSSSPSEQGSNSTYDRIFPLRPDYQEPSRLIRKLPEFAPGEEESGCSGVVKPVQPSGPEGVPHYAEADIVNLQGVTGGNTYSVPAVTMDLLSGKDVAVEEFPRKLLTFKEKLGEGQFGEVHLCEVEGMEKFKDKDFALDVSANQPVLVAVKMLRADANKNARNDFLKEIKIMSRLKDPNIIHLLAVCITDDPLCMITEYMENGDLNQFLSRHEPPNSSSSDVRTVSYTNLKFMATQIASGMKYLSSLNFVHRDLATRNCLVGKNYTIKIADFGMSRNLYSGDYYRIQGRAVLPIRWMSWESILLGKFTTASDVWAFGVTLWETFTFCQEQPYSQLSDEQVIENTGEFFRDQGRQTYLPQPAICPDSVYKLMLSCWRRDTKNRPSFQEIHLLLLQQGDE
Description: as §1

ErbB4(h) = target: T6, ErbB4(h) (Homo sapiens, UniProt Q15303); conditions: read-out: residual kinase activity ErbB4(h)
T6 construct: purchased Eurofins KinaseProfiler
Description: as §1

FAK(h) = target: T7, FAK(h) (Homo sapiens, UniProt Q05397); conditions: read-out: residual kinase activity FAK(h)
T7 construct: purchased Eurofins KinaseProfiler
Description: as §1

Flt4(h) = target: T8, Flt4(h) (Homo sapiens, UniProt P35916); conditions: read-out: residual kinase activity Flt4(h)
T8 construct: purchased Eurofins KinaseProfiler
Description: as §1

IKKα(h) = target: T9, IKKα(h) (Homo sapiens, UniProt O15111); conditions: read-out: residual kinase activity IKKα(h)
T9 construct: purchased Eurofins KinaseProfiler
T9 sequence (O15111 1-745): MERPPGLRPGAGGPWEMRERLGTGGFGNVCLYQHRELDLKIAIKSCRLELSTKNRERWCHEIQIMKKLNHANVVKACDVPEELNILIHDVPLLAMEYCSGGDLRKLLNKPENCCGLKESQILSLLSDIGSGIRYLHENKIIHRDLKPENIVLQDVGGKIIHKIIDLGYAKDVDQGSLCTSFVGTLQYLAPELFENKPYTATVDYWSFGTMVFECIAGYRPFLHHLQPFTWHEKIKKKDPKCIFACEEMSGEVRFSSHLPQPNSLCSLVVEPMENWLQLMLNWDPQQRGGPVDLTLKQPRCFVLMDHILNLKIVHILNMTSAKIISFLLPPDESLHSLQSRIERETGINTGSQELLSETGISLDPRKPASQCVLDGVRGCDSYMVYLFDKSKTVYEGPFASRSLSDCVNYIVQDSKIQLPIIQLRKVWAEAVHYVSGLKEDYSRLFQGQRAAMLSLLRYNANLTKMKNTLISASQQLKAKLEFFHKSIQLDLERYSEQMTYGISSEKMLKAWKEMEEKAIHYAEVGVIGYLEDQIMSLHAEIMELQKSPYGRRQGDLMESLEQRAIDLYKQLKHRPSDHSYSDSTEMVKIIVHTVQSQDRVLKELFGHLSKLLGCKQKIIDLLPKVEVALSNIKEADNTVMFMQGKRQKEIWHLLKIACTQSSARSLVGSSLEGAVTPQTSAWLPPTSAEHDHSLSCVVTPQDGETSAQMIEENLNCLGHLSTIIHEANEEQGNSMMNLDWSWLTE
Description: as §1

KDR(h) = target: T10, KDR(h) (Homo sapiens, UniProt P35968); conditions: read-out: residual kinase activity KDR(h)
T10 construct: purchased Eurofins KinaseProfiler
Description: as §1

Lck(h) activated = target: T11, Lck(h) activated (Homo sapiens, UniProt P06239); conditions: 1 µM
T11 construct: purchased Eurofins KinaseProfiler
Description: as §1

MST3(h) = target: T12, MST3(h) (Homo sapiens, UniProt Q9Y6E0); conditions: read-out: residual kinase activity MST3(h)
T12 construct: purchased Eurofins KinaseProfiler
Description: as §1

[1] = target: T13, PI3 Kinase (p110a/p85a)(h) (Homo sapiens, UniProt P42336); conditions: read-out: residual kinase activity PI3 Kinase (p110a/p85a)(h)
T13 construct: purchased Eurofins KinaseProfiler
Description: as §1

PKBα(h) = target: T14, PKBα(h) (Homo sapiens, UniProt P31749); conditions: read-out: residual kinase activity PKBα(h)
T14 construct: purchased Eurofins KinaseProfiler
Description: as §1

PKCα(h) = target: T15, PKCα(h) (Homo sapiens, UniProt P17252); conditions: read-out: residual kinase activity PKCα(h)
T15 construct: purchased Eurofins KinaseProfiler
Description: as §1

T6 sequence (Q15303 26-1308): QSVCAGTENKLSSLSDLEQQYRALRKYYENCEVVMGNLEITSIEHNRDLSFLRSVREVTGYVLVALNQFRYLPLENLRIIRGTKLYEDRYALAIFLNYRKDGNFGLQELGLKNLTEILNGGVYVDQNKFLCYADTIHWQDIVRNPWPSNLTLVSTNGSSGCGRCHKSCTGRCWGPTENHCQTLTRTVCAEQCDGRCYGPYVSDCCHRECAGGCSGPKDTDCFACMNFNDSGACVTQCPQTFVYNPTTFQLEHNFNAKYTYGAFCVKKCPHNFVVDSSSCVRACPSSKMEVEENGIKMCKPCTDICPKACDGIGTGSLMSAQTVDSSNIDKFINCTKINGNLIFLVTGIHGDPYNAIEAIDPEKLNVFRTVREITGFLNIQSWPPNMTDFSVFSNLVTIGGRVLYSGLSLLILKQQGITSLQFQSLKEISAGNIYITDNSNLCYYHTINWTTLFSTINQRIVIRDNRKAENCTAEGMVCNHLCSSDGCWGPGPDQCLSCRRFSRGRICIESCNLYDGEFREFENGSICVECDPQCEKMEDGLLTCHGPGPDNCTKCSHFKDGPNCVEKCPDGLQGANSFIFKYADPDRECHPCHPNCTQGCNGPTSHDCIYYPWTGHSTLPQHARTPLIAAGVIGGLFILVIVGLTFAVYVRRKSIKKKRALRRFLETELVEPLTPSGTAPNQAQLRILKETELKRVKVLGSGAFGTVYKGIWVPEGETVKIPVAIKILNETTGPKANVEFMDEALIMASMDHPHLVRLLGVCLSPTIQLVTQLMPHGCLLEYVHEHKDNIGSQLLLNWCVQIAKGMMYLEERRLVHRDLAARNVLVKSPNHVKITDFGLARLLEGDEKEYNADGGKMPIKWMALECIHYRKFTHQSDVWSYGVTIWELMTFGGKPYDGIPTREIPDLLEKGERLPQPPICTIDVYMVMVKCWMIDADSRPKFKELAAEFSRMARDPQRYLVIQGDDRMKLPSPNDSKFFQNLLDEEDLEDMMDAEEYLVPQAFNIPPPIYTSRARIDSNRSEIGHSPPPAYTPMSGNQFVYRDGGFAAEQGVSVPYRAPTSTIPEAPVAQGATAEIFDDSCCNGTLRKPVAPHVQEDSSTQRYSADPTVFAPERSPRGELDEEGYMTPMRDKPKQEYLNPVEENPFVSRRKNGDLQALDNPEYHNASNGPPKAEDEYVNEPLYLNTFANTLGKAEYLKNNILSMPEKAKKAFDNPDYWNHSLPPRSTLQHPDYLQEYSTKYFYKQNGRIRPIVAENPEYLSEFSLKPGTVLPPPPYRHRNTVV
T8 sequence (P35916 25-1363): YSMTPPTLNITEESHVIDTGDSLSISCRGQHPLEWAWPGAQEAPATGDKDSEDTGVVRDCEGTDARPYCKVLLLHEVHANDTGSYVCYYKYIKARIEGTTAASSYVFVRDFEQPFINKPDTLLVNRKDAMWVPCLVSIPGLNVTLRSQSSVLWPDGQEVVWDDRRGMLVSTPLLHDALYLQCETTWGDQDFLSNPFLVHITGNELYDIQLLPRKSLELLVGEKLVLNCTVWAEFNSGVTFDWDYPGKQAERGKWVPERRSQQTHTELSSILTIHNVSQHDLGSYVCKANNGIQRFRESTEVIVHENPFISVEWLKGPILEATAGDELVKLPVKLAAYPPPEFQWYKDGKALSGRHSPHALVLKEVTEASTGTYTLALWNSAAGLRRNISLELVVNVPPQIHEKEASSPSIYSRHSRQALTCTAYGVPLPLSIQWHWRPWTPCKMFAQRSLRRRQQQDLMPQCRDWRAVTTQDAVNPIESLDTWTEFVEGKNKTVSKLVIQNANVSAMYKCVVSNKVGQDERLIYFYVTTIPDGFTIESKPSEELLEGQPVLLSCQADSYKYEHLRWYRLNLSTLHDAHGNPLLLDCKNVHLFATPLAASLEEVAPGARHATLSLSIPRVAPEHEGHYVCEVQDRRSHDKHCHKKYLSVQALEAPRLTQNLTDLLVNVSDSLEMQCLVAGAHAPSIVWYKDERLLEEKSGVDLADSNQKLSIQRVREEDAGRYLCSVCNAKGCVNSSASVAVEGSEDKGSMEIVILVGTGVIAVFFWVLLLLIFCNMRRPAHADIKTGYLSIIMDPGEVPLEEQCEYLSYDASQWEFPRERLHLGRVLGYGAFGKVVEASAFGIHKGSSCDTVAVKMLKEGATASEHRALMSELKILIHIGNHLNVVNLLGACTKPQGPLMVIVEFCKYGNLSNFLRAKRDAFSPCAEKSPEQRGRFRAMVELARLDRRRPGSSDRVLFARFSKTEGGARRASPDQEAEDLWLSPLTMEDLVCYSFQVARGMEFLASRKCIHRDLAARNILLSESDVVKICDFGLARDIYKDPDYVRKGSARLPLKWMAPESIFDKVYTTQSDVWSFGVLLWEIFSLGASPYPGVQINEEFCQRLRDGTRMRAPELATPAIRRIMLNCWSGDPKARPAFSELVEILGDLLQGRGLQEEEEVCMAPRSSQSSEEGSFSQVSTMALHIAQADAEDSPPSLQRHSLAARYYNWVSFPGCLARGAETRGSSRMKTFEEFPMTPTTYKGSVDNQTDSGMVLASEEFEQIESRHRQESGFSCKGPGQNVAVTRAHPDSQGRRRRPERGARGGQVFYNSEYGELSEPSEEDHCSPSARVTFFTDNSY
T13 sequence (P42336 whole entry): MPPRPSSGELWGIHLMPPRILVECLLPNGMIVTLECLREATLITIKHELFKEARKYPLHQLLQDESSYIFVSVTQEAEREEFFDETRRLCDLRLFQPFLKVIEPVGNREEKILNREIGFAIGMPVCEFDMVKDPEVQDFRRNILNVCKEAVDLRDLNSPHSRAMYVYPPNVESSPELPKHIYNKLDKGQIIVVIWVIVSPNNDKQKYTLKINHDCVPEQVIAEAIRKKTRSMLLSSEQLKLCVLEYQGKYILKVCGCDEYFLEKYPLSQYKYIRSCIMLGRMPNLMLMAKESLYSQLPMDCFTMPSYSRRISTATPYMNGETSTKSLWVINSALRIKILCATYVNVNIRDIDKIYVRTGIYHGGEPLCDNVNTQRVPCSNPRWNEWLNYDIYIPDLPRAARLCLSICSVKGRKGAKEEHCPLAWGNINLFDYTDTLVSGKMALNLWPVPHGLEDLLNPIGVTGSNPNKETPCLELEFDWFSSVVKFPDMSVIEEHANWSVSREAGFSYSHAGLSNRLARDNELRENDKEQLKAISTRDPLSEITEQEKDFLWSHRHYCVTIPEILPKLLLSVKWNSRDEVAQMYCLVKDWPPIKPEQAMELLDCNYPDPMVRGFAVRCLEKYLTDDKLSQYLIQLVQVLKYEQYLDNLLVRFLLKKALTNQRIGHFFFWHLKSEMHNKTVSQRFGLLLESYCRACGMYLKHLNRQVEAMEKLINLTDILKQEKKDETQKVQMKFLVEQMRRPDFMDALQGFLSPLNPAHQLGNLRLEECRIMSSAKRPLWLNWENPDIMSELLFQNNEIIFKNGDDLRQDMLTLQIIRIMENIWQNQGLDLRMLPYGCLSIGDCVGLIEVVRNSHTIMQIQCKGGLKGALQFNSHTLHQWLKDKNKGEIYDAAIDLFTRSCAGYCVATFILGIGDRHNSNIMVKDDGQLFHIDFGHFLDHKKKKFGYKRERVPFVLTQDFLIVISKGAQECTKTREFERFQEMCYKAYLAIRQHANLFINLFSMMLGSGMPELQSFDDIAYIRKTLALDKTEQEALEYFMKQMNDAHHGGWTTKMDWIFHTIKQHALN
T13 sequence (P27986 whole entry partner): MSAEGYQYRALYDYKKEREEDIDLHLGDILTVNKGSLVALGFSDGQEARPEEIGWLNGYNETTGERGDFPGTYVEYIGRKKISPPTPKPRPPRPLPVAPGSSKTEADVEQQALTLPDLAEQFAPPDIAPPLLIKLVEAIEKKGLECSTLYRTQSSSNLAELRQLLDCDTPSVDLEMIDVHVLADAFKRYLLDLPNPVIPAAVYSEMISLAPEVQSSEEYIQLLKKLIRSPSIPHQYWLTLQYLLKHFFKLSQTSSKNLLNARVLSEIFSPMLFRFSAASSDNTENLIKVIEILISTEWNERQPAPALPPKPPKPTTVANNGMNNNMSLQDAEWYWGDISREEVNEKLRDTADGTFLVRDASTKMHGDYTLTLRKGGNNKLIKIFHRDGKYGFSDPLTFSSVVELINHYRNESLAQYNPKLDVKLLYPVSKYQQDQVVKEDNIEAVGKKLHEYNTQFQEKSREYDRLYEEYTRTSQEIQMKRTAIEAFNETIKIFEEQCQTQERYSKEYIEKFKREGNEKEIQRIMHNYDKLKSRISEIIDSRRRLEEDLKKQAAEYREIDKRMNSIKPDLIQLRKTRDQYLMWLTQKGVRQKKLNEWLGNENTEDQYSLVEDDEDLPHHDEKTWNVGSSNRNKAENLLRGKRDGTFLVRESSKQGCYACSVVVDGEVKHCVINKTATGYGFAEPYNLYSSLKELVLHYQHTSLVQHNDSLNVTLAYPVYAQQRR

| remaining activity at 1 µM (Abl(T315I)(h)) [%] | remaining activity at 1 µM (Abl(h)) [%] | remaining activity at 1 µM (CK1γ1(h)) [%] | remaining activity at 1 µM (CK1γ2(h)) [%] | remaining activity at 1 µM (DDR2(h)) [%] | remaining activity at 1 µM (ErbB4(h)) [%] | remaining activity at 1 µM (FAK(h)) [%] | remaining activity at 1 µM (Flt4(h)) [%] | remaining activity at 1 µM (IKKα(h)) [%] | remaining activity at 1 µM (KDR(h)) [%] | residual kinase activity Lck(h) activated (Lck(h) activated) | remaining activity at 1 µM (MST3(h)) [%] | remaining activity at 1 µM [1] [%] | remaining activity at 1 µM (PKBα(h)) [%] | remaining activity at 1 µM (PKCα(h)) [%] | Structure (SMILES) |
| --- | --- | --- | --- | --- | --- | --- | --- | --- | --- | --- | --- | --- | --- | --- | --- |
| 92 | 99 | 99 | 97 | 138 | 81 | -1 | 67 | 93 | 88 | 90 | 102 | 83 | 105 | 95 | CONC(=O)c1ccccc1Nc1cc(Nc2cc(C)nn2C(C)C)ncc1Cl [GSK2256098] |
| 44 | 57 | 81 | 64 | 94 | 104 | -6 | -3 | 125 | 28 | 58 | 33 | 103 | 101 | 92 | CNC(=O)c1ccc(Nc2ncc(C(F)(F)F)c(NCc3nccnc3N(C)S(C)(=O)=O)n2)cc1 [VS-6063, Defactinib] |

| Structure (SMILES) | remaining activity at 1 µM (Abl(T315I)(h)) [%] | remaining activity at 1 µM (Abl(h)) [%] | remaining activity at 1 µM (CK1γ1(h)) [%] | remaining activity at 1 µM (CK1γ2(h)) [%] | remaining activity at 1 µM (DDR2(h)) [%] | remaining activity at 1 µM (ErbB4(h)) [%] | remaining activity at 1 µM (FAK(h)) [%] | remaining activity at 1 µM (Flt4(h)) [%] | remaining activity at 1 µM (IKKα(h)) [%] | remaining activity at 1 µM (KDR(h)) [%] | residual kinase activity Lck(h) activated (Lck(h) activated) | remaining activity at 1 µM (MST3(h)) [%] | remaining activity at 1 µM [1] [%] | remaining activity at 1 µM (PKBα(h)) [%] | remaining activity at 1 µM (PKCα(h)) [%] |
| --- | --- | --- | --- | --- | --- | --- | --- | --- | --- | --- | --- | --- | --- | --- | --- |
| CNC(=O)c1cccc(C)c1Nc1nc(Nc2ccc(N3CCN(C4C5CC6CC4CC(O)(C6)C5)CC3)cc2OC)ncc1C(F)(F)F (stereo not drawn) [SJP1602, 2-((2-((4-(4-((2s,5r)-5-hydroxyadamantan-2-yl)piperazin-1-yl)-2-methoxyphenyl)amino)-5-(trifluoromethyl)pyrimidin-4-yl)amino)-N,3-dimethylbenzamide] | 106 | 76 | 105 | 101 | 102 | 99 | 3 | 104 | 130 | 101 | 107 | 95 | 104 | 100 | 100 |
